{"source": "patent US12083109B2", "about": "“Neurokinin antagonists and uses thereof” (California Institute of Technology, priority 2017, dated 2024)", "target": "T1, Nk3R (Mus musculus, UniProt P47937)", "T1 sequence (P47937 1-452)": "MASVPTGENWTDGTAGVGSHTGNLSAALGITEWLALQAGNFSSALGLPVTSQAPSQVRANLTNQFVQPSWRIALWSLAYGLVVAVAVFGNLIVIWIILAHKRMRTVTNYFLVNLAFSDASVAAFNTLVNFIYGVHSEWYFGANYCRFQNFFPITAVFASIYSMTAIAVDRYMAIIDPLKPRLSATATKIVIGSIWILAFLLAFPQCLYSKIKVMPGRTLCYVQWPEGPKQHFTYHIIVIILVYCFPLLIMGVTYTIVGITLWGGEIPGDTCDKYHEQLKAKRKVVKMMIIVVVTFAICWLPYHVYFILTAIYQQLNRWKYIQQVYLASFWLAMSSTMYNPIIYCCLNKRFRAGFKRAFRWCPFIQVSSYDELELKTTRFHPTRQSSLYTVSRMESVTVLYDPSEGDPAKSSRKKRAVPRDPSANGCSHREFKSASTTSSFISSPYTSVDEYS", "assay": "Resident intruder assay (aggression), osanetant", "type": "in vivo", "parameters": "from tissue; host or cells: Living mice (wild-type C57Bl6/N males, Charles River)", "procedure": "Testing for aggression using the resident intruder assay (Blanchard et al., 2003; incorporated by reference in its entirety) was performed as previously described (Hong et al., 2015; Hong et al., 2014; Lee et al., 2014; incorporated by reference in their entirety). Briefly, experimental mice (“residents”) were transported in their homecage to a novel behavior testing room (cagemates in group housed mice were removed from the homecage prior to transport for this and all other behavioral tests), where they acclimated for 5-15 minutes. Homecages were then slotted into a customized behavioral chamber lit with a surround panel of infrared lights and equipped with two synchronized infrared video cameras (Pointgrey) placed at 90-degree angles from each other to allow for simultaneous behavior recording with a front and top view. Synchronized video was acquired using Hunter 4.0 software (custom, Pietro Perona lab, Caltech). Following a two-minute baseline period, an unfamiliar male BALB/c mouse (“intruder”) was placed in the homecage of the resident for 10 minutes and mice were allowed to freely interact. Group housed BALB/c males were used as intruders because they are a relatively submissive strain, thereby reducing any intruder-initiated fighting. Behavior videos were hand-annotated by an observer blind to experimental conditions (Behavior Annotator, Piotr's MATLAB toolbox; http://vision.ucsd.edu/˜pdollar/toolbox/doc/). Fighting bouts were scored on a frame-by-frame basis and were defined as a frame during which the resident male was engaged in an episode of biting or intense aggressive behavior immediately surrounding a biting episode. Annotation files were then batch analyzed for behavior, including number of fighting bouts, using in-house customized programs in MATLAB (A. Kennedy, Caltech).\nMice were administered the Nk3R antagonist osanetant (Axon Medchem, Axon 1533) either systemically or intra-brain region. Osanctant was dissolved in saline with 0.1% Tween 20 (vehicle). For systemic administration mice received an intraperitoneal (i.p.) injection (5 mg/kg) 20 minutes prior to behavioral testing. For microinfusions, guide cannulas were removed from mice and replaced with injector cannulas (Plastics One), which protruded 0.5 mm from the tip of the guide cannula. Injectors were attached to 5 μl Hamilton syringes with PE tubing (Plastics One) and mounted on a microinfusion pump (Harvard Apparatus) for controlled infusion of osanetant (0.3 μl vehicle with 375 ng dose per site injected over 6 minutes). For experiments using systemic administration of clozapine-N-oxide (CNO), CNO (Enzo Life Sciences-Biomol, BML-NS105-0005) was dissolved in saline (9 g/L NaCl) and injected (i.p.) at 5 mg/kg for hM4DREADD silencing or 2 mg/kg for hM3DREADD activation 20 minutes prior to behavioral testing. CNO was also administered chronically in drinking water (0.5 mg CNO/100 ml water).", "data": [{"smiles": "CC(=O)N(C)C1(c2ccccc2)CCN(CCC[C@]2(c3ccc(Cl)c(Cl)c3)CCCN(C(=O)c3ccccc3)C2)CC1", "note": "[osanetant, N-(1-{3-[(3R)-1-benzoyl-3-(3,4-dichlorophenyl)piperidin-3-yl]propyl}-4-phenylpiperidin-4-yl)-N-methylacetamide]", "values": [{"measurement": "aggression promoted by sexual experience", "setting": "2 weeks co-habitation with a female, no isolation, systemic osanetant", "value": "had no effect"}, {"measurement": "SIS-enhanced aggression", "setting": "SIS mice (2 weeks isolation), osanetant 5 mg/kg i.p. 20 min before test", "value": "blocked"}, {"measurement": "SIS-enhanced aggression", "setting": "SIS mice (2 weeks isolation), osanetant 5 mg/kg i.p. 20 min before test, listed as Osanetant", "value": "strongly reduced"}, {"measurement": "SIS-enhanced aggression", "setting": "osanetant daily during two-week isolation, tested off-drug", "value": "prevented"}, {"measurement": "aggression", "setting": "osanetant injection into CeA", "value": "unaffected"}, {"measurement": "SIS-induced aggression", "setting": "osanetant microinfusion into DMH", "value": "abolished"}, {"measurement": "SIS-induced aggression", "setting": "osanetant microinfusion into DMH, listed as Osanetant", "value": "selectively blocked"}, {"measurement": "SIS-induced aggression", "setting": "osanetant microinfusion into dBNSTa", "value": "no effect"}]}]}
